Laboratory results from patent EP3097904A1, “DEPIGMENTING AGENTS TO LIGHTEN THE SKIN” (priority 2015, dated 2016).

Key:
[1] = test system: normal murine melanocytes; assay: Whitening effect on melanocyte cell pellet (photograph); type: cell-based; conditions: umbelliprenin 40 µM, 48 hours (Figure 7)
Protocol: Normal murine melanocytes were seeded and treated for 48 hours with umbelliprenin (40 µM) or carrier solvent (DMSO). […] Cells pellet was washed with phosphate buffer saline, centrifuged and the supernatant was discarded. Cell pellets were then photographed.

[2] = test system: normal murine melanocytes treated with alpha melanocyte stimulating hormone (α-MSH); assay: Melanin content in melanocytes treated with α-MSH; type: cell-based; conditions: 48 hours, α-MSH 100 nM; PBPE 20 µM, tesmilifene 10 µM, umbelliprenin 40 µM (Figure 3)
Protocol: (§1) Normal murine melanocytes were seeded and treated for 48 hours with increasing doses of umbelliprenin, 100µM of kojic acid (KA) or carrier solvent (DMSO). […] The cell pellet was washed twice with phosphate buffer saline, transferred in an Eppendorf vial and centrifuged at 5000 g for 5 minutes at 4°C. The supernatant was discarded. 200 µL of water and 1 mL of EtOH/Ether (1/1) were added to precipitate melanin. The mixture was incubated for 15 minutes at room temperature, centrifuged at 5000 g for 5 minutes and the supernatant was discarded. The precipitate was solubilized by 300 µL of a mixture of aqueous sodium hydroxide (1 M)/DMSO 90/10 after heating at 80°C for 1 hour. The absorbance was measured at 405 nm. The melanin content was expressed as a percentage of control (=100%).

[3] = test system: melanogenic genes (Tyrosinase, Mitf, TRP-1 and TRP-2); assay: Expression of genes encoding melanogenic proteins (RT-qPCR); type: cell-based, murine; conditions: 48 hours; PBPE 20 µM, tesmilifene 10 µM, umbelliprenin 40 µM (Figure 8)
Protocol: We then performed RNA extraction. We added Trizol® (1 ml) on treated cells. After incubation (5 minutes at room temperature), we transferred the cells suspension into Eppendorf vial. Chloroform (200 µl at 4°C) was added, the mixture was manually stirred for 15 seconds, incubated for 5 minutes at room temperature and then centrifuged at 16000 g for 10 minutes at 4°C. Aqueous colorless layer was collected and isopropanol (500 µL at -20°C) was added. The mixture was manually stirred for 15 seconds, incubated for 15 minutes at room temperature and the centrifuged at 16200 g for 10 minutes at 4°C. The supernatant was discarded and the precipitate was washed with 1 mL of EtOH/H2O (3/1) at -20°C. The mixture was centrifuged at 16000 g for 10 minutes at 4°C, the supernatant discarded and the pellet was allowed to dry for 10 minutes at room temperature. The pellet was dissolved in RNAse-free water (30 µL). The amount and purity of RNA was determined by measuring the absorbance at 230, 260 and 280 nm with a nanodrop ND-1000 spectrophotometer (Thermo Scientific) according to the manufacturer's instructions.
We then performed RT-qPCR experiment. We prepared a mixture containing RNA (1 µg), reverse transcriptase (1 µL), the reaction mixture « iScript®5x » (4 µL) and RNAse-free water (qsp 20 µl). The mixture was vortexed, centrifuged for few seconds and then introduced into a thermocycler. Reverse transcription was performed using the following program : 5 min at 25°C, 30 min at 42°C and then 5 min at 85°C. Eppendorf vial was maintained at 4°C until the beginning of the qPCR experiment. We then examined the expression of melanogenic genes (Tyrosinase, Mitf, TRP-1 and TRP-2) and housekeeping genes (glyceraldehyde 3-phosphate dehydrogenase and Cyclophiline A1) by qPCR. For this purpose, cDNA was diluted with RNAse-free water (180 µL) and then we prepared a mixture containing: primers, Syber Green® and RNAse-free water. We mixed in a 96-well plate cDNA (5 µL) and the mixture (20 µL). […]

[4] = test system: normal murine melanocytes exposed to ultraviolet (UV-B) irradiation; assay: Melanin content in melanocytes exposed to UV-B irradiation; type: cell-based; conditions: UV-B 20 mJ/cm^2; PBPE 20 µM, tesmilifene 10 µM, umbelliprenin 40 µM (Figure 4)
Protocol: as §1

Tyrosinase = Tyrosinase activity in lysates of treated melanocytes (L-DOPA oxidation); type: cell-based, murine; conditions: 48 hours; PBPE 20 µM, tesmilifene 10 µM, umbelliprenin 40 µM; cell lysate, percentage of control (Figure 6)
Protocol: Tyrosinase activity was measured using a previously reported procedure (Ando H, J. Lipid Res., 1999, 40, p. 1312). […] The cell pellet was washed twice with phosphate buffer saline, transferred in an Eppendorf vial and centrifuged at 5000 g for 5 minutes at 4°C. The supernatant was discarded. Cell lysis was performed with an aqueous solution of sodium deoxycholate 0.5% (1 mL per cell pellet). The suspension was incubated at 0°C for 15 minutes and then 3 mL of a freshly prepared solution of L-DOPA (0.1% w/w) in phosphate buffer at 0.1 M (pH 6.8) was added to the cell lysate. The mixture was incubated at 37°C for 10 min. Tyrosinase activity was measured with a spectrophotometer to quantify the oxidation of L-DOPA to DOPAchrome. The absorbance was measured at 475 nm. The tyrosinase activity was expressed as a percentage of control (=100%). Control corresponds to the tyrosinase activity measured in the cell lysate from normal murine melanocytes treated with carrier solvent. Melanin content of treated murine melanocytes was also measured as described in example 4.

[5] = test system: normal murine melanocytes; assay: Melanin content in normal murine melanocytes (basal); type: cell-based; conditions: 48 hours; for melanin content: increasing doses, expressed as percentage of control (Figures 1, 2)
Protocol: as §1
Normal murine melanocytes were seeded and treated for 48 hours with increasing doses of PBPE, tesmilifene (Tes) or carrier solvent (ethanol).
Normal murine melanocytes were seeded and treated for 48 hours with fixed doses of PBPE, tesmilifene, umbelliprenin or a combination of those, or carrier solvent (DMSO for umbelliprenin, ethanol for tesmilifene or PBPE and EtOH/DMSO 1/1 for the combination).
The cell pellet was washed twice with phosphate buffer saline, transferred in an Eppendorf vial and centrifuged at 5000 g for 5 minutes at 4°C. The supernatant was discarded. Cell lysis was performed with an aqueous solution of sodium deoxycholate 0.5% (1 mL per cell pellet). The suspension was incubated at 0°C for 15 minutes and then 3 mL of a freshly prepared solution of L-DOPA (0.1% w/w) in phosphate buffer at 0.1 M (pH 6.8) was added to the cell lysate. The mixture was incubated at 37°C for 10 min. Tyrosinase activity was measured with a spectrophotometer to quantify the oxidation of L-DOPA to DOPAchrome. The absorbance was measured at 475 nm. The tyrosinase activity was expressed as a percentage of control (=100%). Control corresponds to the tyrosinase activity measured in the cell lysate from normal murine melanocytes treated with carrier solvent.

[6] = test system: normal murine melanocytes; assay: Cytotoxicity, trypan blue cell viability; conditions: 24, 48 and 72 hours; PBPE 20 µM, tesmilifene 10 µM, umbelliprenin 40 µM (Figure 9)
Protocol: Normal murine melanocytes were seeded and treated for 24, 48 and 72 hours with PBPE (20 µM), tesmilifene (10 µM), umbelliprenin (40 µM) or carrier solvent (DMSO for umbelliprenin and ethanol for tesmilifene or PBPE). Cells were detached by trypsinization, collected in phosphate buffer saline and centrifuged at 1500 rpm for 5 minutes at 4°C. Cells pellets were resuspended in the trypan blue solution (0.25%, w/v in PBS) and counted in a Malassez cell under a light microscope. The percentage of cell viability was calculated using the following formula: % cell viability = [1-(blue cells/total cells)] x 100 [formula]

[7] = PBPE 20 µM, tesmilifene 10 µM, umbelliprenin 40 µM vs kojic acid 100 µM (Figure 6)

For `CC(C)=CCC/C(C)=C/CC/C(C)=C/COc1ccc2ccc(=O)oc2c1` [umbelliprenin], the “appearance of melanocytes (cell pellet) versus carrier solvent” value [1] was “much lighter”, the “melanin content in presence of α-MSH” value [2] was “inhibits the melanogenic effect of α-MSH” and the “expression of melanogenic genes” value [3] was “significantly repressed”. The “melanin content after UV-B irradiation” value [4] was “inhibits the melanogenic effect of UV-B”, the tyrosinase activity (Tyrosinase) was “decrease tyrosinase activity levels” and the melanin content [5] was “significantly decreases melanin content in a dose dependent manner”. For the same molecule, the “diminution of melanin content compared with kojic acid” value (from here on “diminution … compared with kojic acid”) [5, 7] was “higher” and the “diminution … compared with kojic acid” value ([5]; increasing doses of umbelliprenin vs 100µM kojic acid (Figure 1)) was “higher”.

In the case of `c1ccc(Cc2ccc(OCCN3CCCC3)cc2)cc1` [PBPE], the “melanin content in presence of α-MSH” value [2] is reported as “inhibits the melanogenic effect of α-MSH”, the “expression of melanogenic genes” value [3] is reported as “this effect was not observed” and the “melanin content after UV-B irradiation” value [4] is reported as “inhibits the melanogenic effect of UV-B”. For the same molecule, the cell viability [6] was “no significant impact”, the tyrosinase activity (Tyrosinase) was “decrease tyrosinase activity levels” and the melanin content [5] was “significantly decrease melanin content in a dose dependent manner”. For the same molecule, the “diminution … compared with kojic acid” value [5, 7] was “higher”.

With `CCN(CC)CCOc1ccc(Cc2ccccc2)cc1` [tesmilifene] the “melanin content in presence of α-MSH” value [2] was “inhibits the melanogenic effect of α-MSH”, the “expression of melanogenic genes” value [3] was “this effect was not observed” and the “melanin content after UV-B irradiation” value [4] was “inhibits the melanogenic effect of UV-B”. For the same molecule, the tyrosinase activity (Tyrosinase) was “decrease tyrosinase activity levels”, the melanin content [5] was “significantly decrease melanin content in a dose dependent manner” and the “diminution … compared with kojic acid” value [5, 7] was “higher”.
